Assay results from patent publication US20260184710A1, “CASITAS B-LINEAGE LYMPHOMA PROTOONCOGENE B (CBL-B) DEGRADING COMPOUNDS AND ASSOCIATED METHODS OF USE” (Arvinas Operations, Inc., priority 2022, published 2026).

Assays:
[1] = biological target: T1, Cbl-b (Homo sapiens, UniProt Q13191); experiment: Cbl-b Degradation Method B (Nano-Glo HiBiT lytic detection); assay type: cell-based; conditions: Cbl-b-HiBit KI Jurkat Cells, incubated at least 6-24 hours; for DC50: half maximal degradation, read-out: Cbl-b Degredation Method B IC50; for Dmax: maximum degradation observed, read-out: Cbl-b Degredation Method B Dmax (%)
T1 construct: Cbl-b-HiBit KI Jurkat Cells were purchased from Promega; host or cells: Cbl-b-HiBiT knock-in Jurkat cells
T1 sequence (Q13191 whole entry): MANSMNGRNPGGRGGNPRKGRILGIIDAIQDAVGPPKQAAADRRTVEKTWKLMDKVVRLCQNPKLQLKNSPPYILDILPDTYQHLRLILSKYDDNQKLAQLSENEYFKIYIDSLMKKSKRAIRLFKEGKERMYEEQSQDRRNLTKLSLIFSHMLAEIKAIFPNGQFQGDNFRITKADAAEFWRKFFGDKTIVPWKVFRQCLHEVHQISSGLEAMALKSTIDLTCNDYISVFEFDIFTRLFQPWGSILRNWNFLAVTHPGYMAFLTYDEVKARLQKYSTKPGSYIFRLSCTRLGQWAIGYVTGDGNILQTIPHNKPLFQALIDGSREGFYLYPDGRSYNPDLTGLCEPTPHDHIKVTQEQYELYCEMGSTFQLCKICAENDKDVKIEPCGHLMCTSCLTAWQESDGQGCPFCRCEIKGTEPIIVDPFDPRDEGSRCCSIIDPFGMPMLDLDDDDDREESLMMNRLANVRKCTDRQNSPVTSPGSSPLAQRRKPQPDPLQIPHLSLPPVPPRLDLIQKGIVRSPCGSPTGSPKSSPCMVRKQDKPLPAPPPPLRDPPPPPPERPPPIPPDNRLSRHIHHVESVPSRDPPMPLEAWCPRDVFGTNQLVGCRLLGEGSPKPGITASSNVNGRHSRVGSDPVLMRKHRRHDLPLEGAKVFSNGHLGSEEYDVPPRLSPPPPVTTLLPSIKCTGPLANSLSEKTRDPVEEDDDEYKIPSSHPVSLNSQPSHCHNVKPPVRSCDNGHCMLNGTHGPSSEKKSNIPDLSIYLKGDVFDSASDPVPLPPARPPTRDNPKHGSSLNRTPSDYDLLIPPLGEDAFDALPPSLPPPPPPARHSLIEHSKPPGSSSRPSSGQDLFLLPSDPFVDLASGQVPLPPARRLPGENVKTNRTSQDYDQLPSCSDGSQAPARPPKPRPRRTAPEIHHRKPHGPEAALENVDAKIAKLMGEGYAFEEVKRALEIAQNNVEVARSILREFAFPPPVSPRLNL
Method in brief: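 An 11-point, 3-fold compound dilution was applied for 6-24 hours to Jurkat cells carrying HiBiT-tagged endogenous Cbl-b. Lytic HiBiT luminescence quantified residual protein. Outputs are DC50 and Dmax relative to DMSO control.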

[2] = biological target: T1, Cbl-b; experiment: Cbl-b Degradation Method A (FACS, anti-Cbl-b antibody staining); assay type: cell-based; conditions: Cbl-b-HiBit KI Jurkat Cells, incubated at least 20 hours; for DC50: half maximal degradation, read-out: Cbl-b Degredation Method A IC50; for Dmax: Jurkat, maximum degradation observed, read-out: Cbl-b Degredation Method A Dmax (%)
Method in brief: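 Readout is flow cytometry of fixed, permeabilized cells immunostained for Cbl-b (primary 1:200, AF488 secondary). Cells were Cbl-b-HiBit knock-in Jurkat, exposed to compound ≥20 h at 37 °C; half-maximal degradation concentration (DC50) and maximal degradation (Dmax) calculated relative to control.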

`CC1c2nc(N3CCC(O[C@H]4CC[C@H](CN5CCC6(CC5)CN(c5cc7c(c(C(F)(F)F)c5)CN(c5cccc([C@]8(Cc9nncn9C)C[C@@H](C#N)C8)c5)C7=O)C6)CC4)CC3)ccc2C(=O)N1C1CCC(=O)NC1=O` (stereo partly shown) [Example 175, (1r,3r)-3-[(4-methyl-4H-1,2,4-triazol-3-yl)methyl]-3-{3-[1-oxo-6-(7-{[(1r,4r)-4-({1-[6-(2,6-dioxopiperidin-3-yl)-7-methyl-5-oxo-5H,6H,7H-pyrrolo[3,4-b]pyridin-2-yl]piperidin-4-yl}oxy)cyclohexyl]methyl}-2,7-diazaspiro[3.5]nonan-2-yl)-4-(trifluoromethyl)-2,3-dihydro-1H-isoindol-2-yl]phenyl}cyclobutane-1-carbonitrile] gave a DC50 [1] of less than 5 nM, a Dmax [1] of 35 to 70% and a DC50 [2] of 5 to 50 nM. It also gave a Dmax [2] greater than 70%.
With `Cc1cc(N2CCC(CN3CCC4(C3)CN(c3cc5c(c(C(F)(F)F)c3)CN(c3cccc([C@]6(Cc7nncn7C)C[C@@H](C#N)C6)c3)C5=O)C4)CC2)c(F)c2c1C(=O)N(C1CCC(=O)NC1=O)C2` (stereo partly shown) [Example 176, (1r,3r)-3-(3-{6-[6-({1-[2-(2,6-dioxopiperidin-3-yl)-4-fluoro-7-methyl-1-oxo-2,3-dihydro-1H-isoindol-5-yl]piperidin-4-yl}methyl)-2,6-diazaspiro[3.4]octan-2-yl]-1-oxo-4-(trifluoromethyl)-2,3-dihydro-1H-isoindol-2-yl}phenyl)-3-[(4-methyl-4H-1,2,4-triazol-3-yl)methyl]cyclobutane-1-carbonitrile] the DC50 [1] was less than 5 nM, the Dmax [1] was 35 to 70% and the DC50 [2] was 5 to 50 nM. The Dmax [2] was 35 to 70%.
`Cc1cc(N2CCC(CN3CCC4(CCN(c5cc6c(c(C(F)(F)F)c5)CN(c5cccc([C@]7(Cc8nncn8C)C[C@@H](C#N)C7)c5)C6=O)C4)C3)CC2)c(F)c2c1C(=O)N(C1CCC(=O)NC1=O)C2` (stereo partly shown) [Example 177, (1r,3r)-3-(3-{6-[7-({1-[2-(2,6-dioxopiperidin-3-yl)-4-fluoro-7-methyl-1-oxo-2,3-dihydro-1H-isoindol-5-yl]piperidin-4-yl}methyl)-2,7-diazaspiro[4.4]nonan-2-yl]-1-oxo-4-(trifluoromethyl)-2,3-dihydro-1H-isoindol-2-yl}phenyl)-3-[(4-methyl-4H-1,2,4-triazol-3-yl)methyl]cyclobutane-1-carbonitrile] gave a DC50 [1] of less than 5 nM, a Dmax [1] of 35 to 70% and a DC50 [2] of 5 to 50 nM. For the same compound, the Dmax [2] was 35 to 70%.
Compound `CC1c2nc(N3CCC(O[C@H]4CC[C@H](CN5CCC6(C5)CN(c5cc7c(c(C(F)(F)F)c5)CN(c5cccc([C@]8(Cc9nncn9C)C[C@@H](C#N)C8)c5)C7=O)C6)CC4)CC3)ccc2C(=O)N1C1CCC(=O)NC1=O` (stereo partly shown) [Example 178, (1r,3r)-3-[(4-methyl-4H-1,2,4-triazol-3-yl)methyl]-3-{3-[1-oxo-6-(6-{[(1r,4r)-4-({1-[6-(2,6-dioxopiperidin-3-yl)-7-methyl-5-oxo-5H,6H,7H-pyrrolo[3,4-b]pyridin-2-yl]piperidin-4-yl}oxy)cyclohexyl]methyl}-2,6-diazaspiro[3.4]octan-2-yl)-4-(trifluoromethyl)-2,3-dihydro-1H-isoindol-2-yl]phenyl}cyclobutane-1-carbonitrile] has a DC50 [1] of less than 5 nM, a Dmax [1] of 35 to 70% and a DC50 [2] of 5 to 50 nM. The Dmax [2] was 35 to 70%.
Work on `CC1c2nc(N3CCC(O[C@H]4CC[C@H](CN5CCC6(CCN(c7cc8c(c(C(F)(F)F)c7)CN(c7cccc([C@]9(Cc%10nncn%10C)C[C@@H](C#N)C9)c7)C8=O)C6)C5)CC4)CC3)ccc2C(=O)N1C1CCC(=O)NC1=O` (stereo partly shown) [Example 179, (1r,3r)-3-[(4-methyl-4H-1,2,4-triazol-3-yl)methyl]-3-{3-[1-oxo-6-(7-{[(1r,4r)-4-({1-[6-(2,6-dioxopiperidin-3-yl)-7-methyl-5-oxo-5H,6H,7H-pyrrolo[3,4-b]pyridin-2-yl]piperidin-4-yl}oxy)cyclohexyl]methyl}-2,7-diazaspiro[4.4]nonan-2-yl)-4-(trifluoromethyl)-2,3-dihydro-1H-isoindol-2-yl]phenyl}cyclobutane-1-carbonitrile] yielded a DC50 [1] of less than 5 nM, a Dmax [1] of 35 to 70% and a DC50 [2] of 5 to 50 nM. The Dmax [2] was 35 to 70%.
`CC1c2nc(N3CCC(O[C@H]4CC[C@H](CN5C[C@H]6C[C@@H]5CN6c5cc6c(c(C(F)(F)F)c5)CN(c5cccc([C@]7(Cc8nncn8C)C[C@@H](C#N)C7)c5)C6=O)CC4)CC3)ccc2C(=O)N1C1CCC(=O)NC1=O` (stereo partly drawn) [Example 181, (1r,3r)-3-[(4-methyl-4H-1,2,4-triazol-3-yl)methyl]-3-(3-{1-oxo-6-[(1R,4R)-5-{[(1r,4r)-4-({1-[6-(2,6-dioxopiperidin-3-yl)-7-methyl-5-oxo-5H,6H,7H-pyrrolo[3,4-b]pyridin-2-yl]piperidin-4-yl}oxy)cyclohexyl]methyl}-2,5-diazabicyclo[2.2.1]heptan-2-yl]-4-(trifluoromethyl)-2,3-dihydro-1H-isoindol-2-yl}phenyl)cyclobutane-1-carbonitrile] showed a DC50 [1] of less than 5 nM, a Dmax [1] of 35 to 70% and a DC50 [2] of less than 5 nM. It also gave a Dmax [2] of 35 to 70%.
For `COc1c(N2CCC(F)(CN3CCC4(CC3)CN(c3cc5c(c(C(F)(F)F)c3)CN(c3cccc(C6(Cc7nncn7C)COC6)c3)C5=O)C4)CC2)ccc2c1CN(C1CCC(=O)NC1=O)C2=O` (stereo not shown) [Example 185, 3-{5-[4-fluoro-4-({2-[2-(3-{3-[(4-methyl-4H-1,2,4-triazol-3-yl)methyl]oxetan-3-yl}phenyl)-3-oxo-7-(trifluoromethyl)-2,3-dihydro-1H-isoindol-5-yl]-2,7-diazaspiro[3.5]nonan-7-yl}methyl)piperidin-1-yl]-4-methoxy-1-oxo-2,3-dihydro-1H-isoindol-2-yl}piperidine-2,6-dione], the DC50 [1] was 5 to 50 nM, the Dmax [1] was 35 to 70% and the DC50 [2] was 5 to 50 nM. For the same compound, the Dmax [2] was 35 to 70%.
`COc1c(N2CCC(O[C@H]3CC[C@H](CN4CCC5(CC4)CN(c4cc6c(c(C(F)(F)F)c4)CN(c4cccc([C@]7(Cc8nncn8C)C[C@@H](C#N)C7)c4)C6=O)C5)CC3)CC2)ccc2c1CN(C1CCC(=O)NC1=O)C2=O` (stereo partly shown) [Example 186, (1r,3r)-3-[(4-methyl-4H-1,2,4-triazol-3-yl)methyl]-3-{3-[1-oxo-6-(7-{[(1r,4r)-4-({1-[2-(2,6-dioxopiperidin-3-yl)-4-methoxy-1-oxo-2,3-dihydro-1H-isoindol-5-yl]piperidin-4-yl}oxy)cyclohexyl]methyl}-2,7-diazaspiro[3.5]nonan-2-yl)-4-(trifluoromethyl)-2,3-dihydro-1H-isoindol-2-yl]phenyl}cyclobutane-1-carbonitrile] showed a DC50 [1] of less than 5 nM, a Dmax [1] of 35 to 70% and a DC50 [2] of 5 to 50 nM. For the same compound, the Dmax [2] was 35 to 70%.
`Cc1cc(N2CCC(O[C@H]3CC[C@H](CN4CCC5(CCN(c6cc7c(c(C(F)(F)F)c6)CN(c6cccc([C@]8(Cc9nncn9C)C[C@@H](C#N)C8)c6)C7=O)C5)C4)CC3)CC2)c(F)c2c1C(=O)N(C1CCC(=O)NC1=O)C2` (stereo partly shown) [Example 188, (1r,3r)-3-[(4-methyl-4H-1,2,4-triazol-3-yl)methyl]-3-{3-[1-oxo-6-(7-{[(1r,4r)-4-({1-[2-(2,6-dioxopiperidin-3-yl)-4-fluoro-7-methyl-1-oxo-2,3-dihydro-1H-isoindol-5-yl]piperidin-4-yl}oxy)cyclohexyl]methyl}-2,7-diazaspiro[4.4]nonan-2-yl)-4-(trifluoromethyl)-2,3-dihydro-1H-isoindol-2-yl]phenyl}cyclobutane-1-carbonitrile] was tested, and the DC50 [1] was less than 5 nM, the Dmax [1] was 35 to 70% and the Dmax [2] was 35 to 70%.
In the case of `COc1c(N2CCC(O[C@H]3CC[C@H](CN4CCN(Cc5cc6c(c(C(F)(F)F)c5)CN(c5cccc(C7(Cc8nncn8C)COC7)c5)C6=O)CC4)CC3)CC2)ccc2c1CN(C1CCC(=O)NC1=O)C2=O` (stereo partly shown) [Example 193, 3-[4-methoxy-1-oxo-5-(4-{[(1r,4r)-4-[(4-{[2-(3-{3-[(4-methyl-4H-1,2,4-triazol-3-yl)methyl]oxetan-3-yl}phenyl)-3-oxo-7-(trifluoromethyl)-2,3-dihydro-1H-isoindol-5-yl]methyl}piperazin-1-yl)methyl]cyclohexyl]oxy}piperidin-1-yl)-2,3-dihydro-1H-isoindol-2-yl]piperidine-2,6-dione], the DC50 [1] is reported as less than 5 nM, the Dmax [1] is reported as 35 to 70% and the DC50 [2] is reported as less than 5 nM. For the same compound, the Dmax [2] was greater than 70%.
`C[C@H]1CN(C[C@H]2CC[C@@H](OC3CCN(c4ccc5c(c4F)CN(C4CCC(=O)NC4=O)C5=O)CC3)CC2)CCN1Cc1cc2c(c(C(F)(F)F)c1)CN(c1cccc(C3(Cc4nncn4C)COC3)c1)C2=O` (stereo partly drawn) [Example 194, 3-[4-fluoro-1-oxo-5-(4-{[(1r,4r)-4-{[(3S)-3-methyl-4-{[2-(3-{3-[(4-methyl-4H-1,2,4-triazol-3-yl)methyl]oxetan-3-yl}phenyl)-3-oxo-7-(trifluoromethyl)-2,3-dihydro-1H-isoindol-5-yl]methyl}piperazin-1-yl]methyl}cyclohexyl]oxy}piperidin-1-yl)-2,3-dihydro-1H-isoindol-2-yl]piperidine-2,6-dione] showed a DC50 [1] of less than 5 nM, a Dmax [1] of 35 to 70% and a DC50 [2] of less than 5 nM. For the same compound, the Dmax [2] was greater than 70%.
